Data from ChEMBL document CHEMBL1201862, “PubChem BioAssay data set” (2004).
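Following 48 hours of exposure in 96-well plates, responses at five concentrations were used to interpolate endpoints linearly. GI50: concentration for 50% inhibition of growth.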 Calls of active or inactive are those of the source. Cut-off read from the data, not from the text of the source: active = GI50 up to about 1.1 µM and inactive = higher.

Assays:
Assay in all cases: NCI-60 cell line screen, 48 h
A549 = system: A549
BT-549 = system: BT-549
CAKI-1 = system: CAKI-1
HCC 2998 = system: HCC 2998
HCT-116 = system: HCT-116
Hs-578T = system: Hs-578T
KM12 = system: KM12
MDA-MB-231 = system: MDA-MB-231
MDA-N = system: MDA-N
MOLT-4 = system: MOLT-4
NCI-H23 = system: NCI-H23
NCI-H522 = system: NCI-H522
OVCAR-3 = system: OVCAR-3
OVCAR-4 = system: OVCAR-4
SK-MEL-5 = system: SK-MEL-5
U-251 = system: U-251
COLO 205 = system: COLO 205
SK-OV-3 = system: SK-OV-3
SNB-19 = system: SNB-19
UACC-62 = system: UACC-62

| Structure (SMILES) | GI50 (A549) | GI50 (BT-549) | GI50 (CAKI-1) | GI50 (HCC 2998) | GI50 (HCT-116) | GI50 (Hs-578T) | GI50 (KM12) | GI50 (MDA-MB-231) | GI50 (MDA-N) | GI50 (MOLT-4) | GI50 (NCI-H23) | GI50 (NCI-H522) | GI50 (OVCAR-3) | GI50 (OVCAR-4) | GI50 (SK-MEL-5) | GI50 (U-251) | GI50 (COLO 205) | GI50 (SK-OV-3) | GI50 (SNB-19) | GI50 (UACC-62) |
| --- | --- | --- | --- | --- | --- | --- | --- | --- | --- | --- | --- | --- | --- | --- | --- | --- | --- | --- | --- | --- |
| CCOc1cc(C2SCC(=O)N2c2ccc3c(c2)Oc2c(Cl)c4c(c(Cl)c2=N3)Oc2cc(N3C(=O)CSC3c3ccc(O)c(OCC)c3)ccc2N=4)ccc1O (centres undefined) | 23.8 µM (inactive) | 21.7 µM (inactive) | > 100 µM (inactive) | 21.9 µM (inactive) | 18 µM (inactive) | 73.5 µM (inactive) | 40.9 µM (inactive) | 34.1 µM (inactive) | 34.8 µM (inactive) | 2.25 µM (inactive) | 21 µM (inactive) | 34 µM (inactive) | 26.3 µM (inactive) | 46.3 µM (inactive) | 45.8 µM (inactive) | 21 µM (inactive) |  |  |  |  |
| Cc1ccc(C(=O)/C=C(\O)C(=O)NN=C(c2ccccc2)c2ccccc2)cc1 | 41.2 µM (inactive) | 47.9 µM (inactive) | > 100 µM (inactive) | 80 µM (inactive) | 36.5 µM (inactive) | 56.9 µM (inactive) | 77.4 µM (inactive) | > 100 µM (inactive) | > 100 µM (inactive) | 58.9 µM (inactive) | > 100 µM (inactive) |  | > 100 µM (inactive) | 63.1 µM (inactive) | 53.1 µM (inactive) | 46.2 µM (inactive) | 40.4 µM (inactive) | > 100 µM (inactive) | 58.9 µM (inactive) | 68.9 µM (inactive) |
| O=c1cc(O)c2ccccc2o1 [4-HYDROXYCOUMARINS] | > 100 µM (inactive) | > 100 µM (inactive) | > 100 µM (inactive) | > 100 µM (inactive) | > 100 µM (inactive) | > 100 µM (inactive) | > 100 µM (inactive) | > 100 µM (inactive) | > 100 µM (inactive) | > 100 µM (inactive) | > 100 µM (inactive) | > 100 µM (inactive) | > 100 µM (inactive) | > 100 µM (inactive) | > 100 µM (inactive) | > 100 µM (inactive) | > 100 µM (inactive) |  | > 100 µM (inactive) | > 100 µM (inactive) |
| CN(C)CC1CCC/C(=C\c2ccc(OC(=O)c3ccc(Cl)cc3)cc2)C1=O (centres undefined) | 2.38 µM (inactive) | 2.81 µM (inactive) | 2.19 µM (inactive) | 9.95 µM (inactive) | 0.832 µM (active) | 2.57 µM (inactive) | 1.57 µM (inactive) | 2.45 µM (inactive) | 2.38 µM (inactive) | 0.661 µM (active) | 1.69 µM (inactive) |  | 1.6 µM (inactive) | 2.8 µM (inactive) | 3.69 µM (inactive) | 1.5 µM (inactive) | 1.97 µM (inactive) | 10.3 µM (inactive) | 3.36 µM (inactive) | 3.3 µM (inactive) |
| Cc1cccc(-c2nc3ccc([N+](=O)[O-])cc3c(=O)o2)c1 | 73.3 µM (inactive) | 51.4 µM (inactive) | > 100 µM (inactive) | > 100 µM (inactive) | 42.8 µM (inactive) | 22 µM (inactive) | 90.6 µM (inactive) | > 100 µM (inactive) | > 100 µM (inactive) | 27.6 µM (inactive) | 72.8 µM (inactive) | 32.3 µM (inactive) | 47.9 µM (inactive) | 68.9 µM (inactive) | > 100 µM (inactive) | 44.4 µM (inactive) | > 100 µM (inactive) | > 100 µM (inactive) |  | 21.1 µM (inactive) |
| COc1cccc(CCCNC(=O)Cc2cc(OC)c(OC)cc2CO)c1 | > 100 µM (inactive) | > 100 µM (inactive) | > 100 µM (inactive) | > 100 µM (inactive) | > 100 µM (inactive) | > 100 µM (inactive) | > 100 µM (inactive) | > 100 µM (inactive) | > 100 µM (inactive) | > 100 µM (inactive) | > 100 µM (inactive) |  | > 100 µM (inactive) | > 100 µM (inactive) | 83.2 µM (inactive) | > 100 µM (inactive) | > 100 µM (inactive) |  | > 100 µM (inactive) | > 100 µM (inactive) |
| O=C1O[C@H]2C3C4CCC(C4[C@@H]2I)[C@H]13 (some centres undefined) | > 100 µM (inactive) | > 100 µM (inactive) | > 100 µM (inactive) | > 100 µM (inactive) | > 100 µM (inactive) | > 100 µM (inactive) | > 100 µM (inactive) | > 100 µM (inactive) | > 100 µM (inactive) | > 100 µM (inactive) | > 100 µM (inactive) | > 100 µM (inactive) | > 100 µM (inactive) | > 100 µM (inactive) | > 100 µM (inactive) | > 100 µM (inactive) | > 100 µM (inactive) |  | > 100 µM (inactive) | > 100 µM (inactive) |
| Cc1c[nH]c(C(=O)O)c1-c1cccn1-c1ccc(Cl)cc1[N+](=O)[O-] | 83.4 µM (inactive) | > 100 µM (inactive) | > 100 µM (inactive) | > 100 µM (inactive) | > 100 µM (inactive) | > 100 µM (inactive) | 76.6 µM (inactive) | > 100 µM (inactive) | > 100 µM (inactive) | 63.1 µM (inactive) | > 100 µM (inactive) | 72.8 µM (inactive) | 11.8 µM (inactive) | > 100 µM (inactive) | > 100 µM (inactive) | > 100 µM (inactive) | > 100 µM (inactive) | > 100 µM (inactive) |  | > 100 µM (inactive) |
| O=[N+]([O-])C(/C(Cl)=C(/Cl)N1CCOCC1)=C1\NCCO1 | > 100 µM (inactive) | > 100 µM (inactive) | > 100 µM (inactive) | > 100 µM (inactive) | > 100 µM (inactive) | > 100 µM (inactive) | > 100 µM (inactive) | > 100 µM (inactive) | > 100 µM (inactive) | > 100 µM (inactive) | > 100 µM (inactive) |  | > 100 µM (inactive) | > 100 µM (inactive) |  | > 100 µM (inactive) | > 100 µM (inactive) | > 100 µM (inactive) | > 100 µM (inactive) | > 100 µM (inactive) |
| Cc1cc2ccccc2c[n+]1CC(O)C[n+]1cc2ccccc2cc1C | > 100 µM (inactive) | > 100 µM (inactive) | > 100 µM (inactive) | > 100 µM (inactive) | > 100 µM (inactive) | > 100 µM (inactive) | > 100 µM (inactive) | > 100 µM (inactive) | > 100 µM (inactive) | > 100 µM (inactive) | > 100 µM (inactive) | > 100 µM (inactive) | 51.6 µM (inactive) | > 100 µM (inactive) | > 100 µM (inactive) | > 100 µM (inactive) | > 100 µM (inactive) |  | > 100 µM (inactive) | > 100 µM (inactive) |
| C=CC1=C(C)c2cc3[nH]c(c4c5nc(cc6[nH]c(cc1n2)c(C=O)c6CC)C(C)=C5C(=O)[C@@H]4C(=O)OC)[C@@H](CCC(=O)O)[C@@H]3C | > 100 µM (inactive) | > 100 µM (inactive) | > 100 µM (inactive) | > 100 µM (inactive) | 65.5 µM (inactive) | > 100 µM (inactive) | 21.5 µM (inactive) | 28 µM (inactive) | > 100 µM (inactive) | 43.6 µM (inactive) | 24.7 µM (inactive) | 30.8 µM (inactive) |  | > 100 µM (inactive) | 30.3 µM (inactive) | 9.25 µM (inactive) | 95.7 µM (inactive) | > 100 µM (inactive) | > 100 µM (inactive) | > 100 µM (inactive) |
